Earlier results as cited in the CATMoS acute toxicity set (Mansouri et al. 2021).
Values joined by “and” are separate entries in the source; they are usually repeats but may differ in a detail not shown here. Equal entries are not always repeated.

Assay: rat acute oral toxicity
Conditions: in vivo

SMILES | LD50
Cc1cc(CC(=O)O)n(C)c1C(=O)c1ccc(Cl)cc1 | 27 mg/kg
O=[N+]([O-])c1cc(Cl)c2nc(C(F)(F)F)[nH]c2c1 | 9.87 mg/kg
Cc1ccc(SN(C)C(=O)Oc2cccc3c2OC(C)(C)C3)cc1 | 25 mg/kg
CCCCCN(CCCCC)N=O | 1750 mg/kg
CCCCS(=O)(=O)NC1CCCCC1 | 2820 mg/kg
CC(C)=CCCC(C)CC=O (centres undefined) | 2420 mg/kg and 7200 mg/kg
CCN1CCCC1CNS(=O)(=O)c1cc(Cl)c(N)cc1OC (centres undefined) | 1500 mg/kg
CCC1C(c2ccccc2)=CCC(C(=O)O)C1C (centres undefined) | 2350 mg/kg
COc1ccccc1C=Nc1ccccc1C(=O)O | 1500 mg/kg
CCCCCCCCCCCCCCCCCC1=NCCN1CCO | 3800 mg/kg
CON=CC1=CCCN(OC(=O)Nc2ccc(Cl)cc2)C1 | 500 mg/kg
C#CCOc1ccccc1OC(=O)NC | 60 mg/kg
Cc1ccc(S(=O)(=O)/C=C/C#N)cc1 | 1440 mg/kg
FC(F)(F)c1nc2c(Cl)c(Cl)c(Cl)c(Br)c2[nH]1 | 4.12 mg/kg
O=C1C(Cc2ccccc2)C(=O)N(c2ccccc2)N1c1ccccc1 | 297 mg/kg
Oc1ccc(-c2ccccc2)cc1CN1CCCCC1 | 30 mg/kg
FC(F)=C(F)c1ccccc1 | 2500 mg/kg
O=C(OCC1CO1)c1cccc(C(=O)OCC2CO2)c1 (centres undefined) | 1000 mg/kg
CCOP(=S)(OCC)SCSc1ccc(Cl)c(Cl)c1 | 89 mg/kg
CCCOCCOC(C)=O | 9460 mg/kg
C1OCC(COCC2COCO2)O1 (centres undefined) | 5150 mg/kg
CC(CO)Oc1ccccc1 (centres undefined) | 2830 mg/kg
CC(C)CCCCCOP(OCCCCCC(C)C)OCCCCCC(C)C | 9200 mg/kg
CCCCOC(=O)C1CCC(C(=O)OCCCC)C1 (centres undefined) | 6500 mg/kg
Oc1cc(Cl)c(Br)cc1Cl | 1350 mg/kg

SMILES | LD50
Cc1ncc2cscc2c1O | 1500 mg/kg
CCC1(CC)C(=O)C=CNC1=O | 780 mg/kg
C=CC(=O)OCC(C)OCC(C)OCC(C)OC(=O)C=C (centres undefined) | 6200 mg/kg
Cc1cc(CC(C)CC(C)(C)C)oc(=O)c1 (centres undefined) | 1480 mg/kg
CC(C)CC(C)CC(CC(C)C)OCCO (centres undefined) | 5650 mg/kg
Cc1occc(=O)c1O | 1410 mg/kg
CCOCN(C(=O)CO)c1c(C)cccc1CC | 2400 mg/kg
CCC(COCC1CO1)(COCC1CO1)COCC1CO1 (centres undefined) | 3400 mg/kg
COc1ccc2c(c1)c(CC(=O)Oc1ccccc1C(=O)O)c(C)n2C(=O)c1ccc(Cl)cc1 | 59.5 mg/kg
CCOP(=O)(OCC)Oc1ccc(S(C)(=O)=O)c(C)c1 | 8.13 mg/kg
CC(=O)NC(N)=S | 50 mg/kg
Cc1cc(C(=O)c2ccccc2)ccc1N=Cc1cccc(OCCC(C)C)c1 | 2100 mg/kg
CCCN(CCC)S(=O)(=O)c1ccc(C(=O)O)cc1 | 1600 mg/kg
O=C(Nc1cc(Cl)ccc1Cl)c1cc(Cl)cc(-c2ccccc2)c1O | 6310 mg/kg
CC(C)=NOC(=O)Nc1ccccc1 | 1540 mg/kg
C=CCc1ccc(OC(=O)NC)c(OC)c1 | 250 mg/kg
OCC(CO)N[C@H]1C[C@](O)(CO)[C@@H](O)[C@H](O)[C@H]1O | 20000 mg/kg
CCCCOC(=O)CC(CC(=O)OCCCC)(OC(C)=O)C(=O)OCCCC | 31400 mg/kg
Brc1ccccc1 | 2380 mg/kg
CC/C=C\CCO | 4700 mg/kg
CCCCc1ccc(O)cc1O | 500 mg/kg
COP(=O)(Oc1ccc([N+](=O)[O-])c(C)c1)SC (centres undefined) | 315 mg/kg
O=C(NP(=O)(N1CC1)N1CC1)c1ccccc1 | 50 mg/kg
CCCCCCCCOC(=O)/C=C\C(=O)OCCCCCCCC | 14200 mg/kg
O=C(OC1CC2NC(C1)C1OC21)C(CO)c1ccccc1 (centres undefined) | 3020 mg/kg

SMILES | LD50
CC1CCC=C2N(C)C=C(C(=N)O)C(=O)N21 (centres undefined) | 750 mg/kg
Nc1ccc(C(=O)O)c(O)c1 | 8000 mg/kg
Clc1cc(Cl)cc(C2(CC(Cl)(Cl)Cl)CO2)c1 (centres undefined) | 1500 mg/kg
CC(C)CC(C)Nc1ccc(Nc2ccccc2)cc1 (centres undefined) | 3580 mg/kg
O=c1nc(O)n(Cl)c(=O)n1Cl | 1220 mg/kg
Cc1ccc2c(c1)CC(=O)c1cc(C(C)C(=O)OCCOCCO)ccc1O2 (centres undefined) | 219 mg/kg
CCCCSC(=Nc1cccnc1)SCc1ccc(C(C)(C)C)cc1 | 2700 mg/kg
OB(O)c1ccccc1 | 740 mg/kg
COP(N)(=S)SC (centres undefined) | 250 mg/kg
O=C(Cl)c1cc(Cl)cc(Cl)c1 | 794 mg/kg
CCCCCCCCSC(=O)Oc1cc(Cl)nnc1-c1ccccc1 | 1970 mg/kg
CCOc1ccc(Cl)cc1C(CN1CCCCC1)C(C)CC (centres undefined) | 445 mg/kg
O=C=NCc1ccc(CN=C=O)cc1 | 4500 mg/kg
C=CC(C)NC(=S)NNC(=S)NC (centres undefined) | 1000 mg/kg
CCOc1ccc(N(C)C(=O)C(C(C)O)N(C)C)cc1 (centres undefined) | 1350 mg/kg
O=C(O)COc1nn(Cc2ccccc2)c2ccccc12 | 1200 mg/kg
O=C(O)c1ccccc1Cl | 1140 mg/kg
Nc1cc(S(=O)(=O)O)cc2c1C(=O)C(=NNc1ccc(NN=C3C(=O)c4c(O)cc(S(=O)(=O)O)cc4C=C3S(=O)(=O)O)cc1)C(S(=O)(=O)O)=C2 | 12000 mg/kg
Nc1ccc(N)cc1 | 80 mg/kg and 147 mg/kg
CCSC(=S)N(C)C | 550 mg/kg
C/C=C1/C[C@@H](C)[C@](O)(CO)C(=O)OCC2=CC[N+]3([O-])CC[C@@H](OC1=O)[C@@H]23 (some centres undefined) | 48 mg/kg
Fc1c(Br)c(F)c2nc(C(F)(F)F)[nH]c2c1Br | 7.23 mg/kg
CC(N)=S | 301 mg/kg
CC(=O)OCc1ccc(C(C)C)cc1 | 1450 mg/kg
COP(=S)(OC)SCSc1cc(Cl)ccc1Cl | 220 mg/kg

SMILES | LD50
CCOP(=O)(OCC)O/C(=C\Cl)c1cc(Cl)ccc1Cl | 35 mg/kg
C=C(Cl)CSC(=S)N(CC)CC | 850 mg/kg
C=C(C)C(=O)OCCO | 5620 mg/kg
Cc1cc(=NC(=O)c2ccccc2O)n(-c2ccccc2)n1C | 1270 mg/kg
O=[N+]([O-])c1ccc(F)cc1F | 200 mg/kg
CCOP(=S)(OCC)SC=C(C)SC | 2.5 mg/kg
C=CC(=O)OCCOCCOCCOCCOC(=O)C=C | 813 mg/kg
COc1c(C)ccc(C)c1N(COC(C)C)C(=O)CCl | 1730 mg/kg
C[Si](Cl)(Cl)CCCC#N | 650 mg/kg
CCN(CC)S(=O)(=O)c1ccc(OP(=S)(OC)OC)cc1Cl | 50 mg/kg
O=C(OCC(Cl)(Cl)Cl)c1ccco1 | 600 mg/kg
CC1=[N+](C)c2ccccc2C1(C)C | 707 mg/kg
CCCCC(CC)COC(C[n+]1ccccc1)c1ccc(Cl)c(Cl)c1 (centres undefined) | 250 mg/kg
CC(C)NC(=O)OC1CCN(CCCC(=O)c2ccc(F)cc2)CC1 | 310 mg/kg
C=C(C)C1CC=C(C=NO)CC1 (centres undefined) | 2500 mg/kg
Cc1cccc(N2CCN(CCCCN3C(=O)CNC3=O)CC2)c1 | 383 mg/kg
ClCC(Br)CBr (centres undefined) | 170 mg/kg
Cc1ccc(CC(C)N)cc1 (centres undefined) | 150 mg/kg
CC1(C)CO1 | 3890 mg/kg
CCN1CCC(=C(c2ccccc2)c2ccccc2)C1 | 166 mg/kg and 450 mg/kg
CCCCCCCCOC(C[n+]1ccccc1)c1ccc(C2CCCC2)cc1 (centres undefined) | 250 mg/kg
CCCCNC | 420 mg/kg
CC(C)=CCN(CC=C(C)C)CCC(C)(C(N)=O)c1cccc2ccccc12 (centres undefined) | 353 mg/kg
C=CCOC(=O)CCC1CCCCC1 | 585 mg/kg
c1ccc(C2CCCCC2)c(OCCC2=NCCN2)c1 | 9.2 mg/kg

SMILES | LD50
O=C(NNCc1ccccc1)c1ccccn1 | 240 mg/kg
O=C(O)Cc1ccc(C2CCCCC2)c(Cl)c1 | 83 mg/kg
CNC1(c2ccccc2Cl)CCCCC1=O (centres undefined) | 447 mg/kg
CCOP(=O)(OCC)Oc1nc(Cl)c(Cl)cc1Cl | 135 mg/kg
ClCCN1CCCC(C(c2ccccc2)c2ccccc2)C1 (centres undefined) | 970 mg/kg
C#CCc1cc(COC(=O)C2C(C=C(C)C)C2(C)C)c(C)o1 (centres undefined) | 14000 mg/kg
COP(=S)(Oc1ccc([N+](=O)[O-])cc1)OC(C)C (centres undefined) | 5 mg/kg
CC(=O)c1ccc(C)cc1 | 1400 mg/kg
COC1=CC(=O)OC(C=CC2=CCCC=C2)C1 (centres undefined) | 16000 mg/kg
c1ccc2c(NC3=NCCS3)cccc2c1 | 50 mg/kg
CCCCC(CC)CNc1ccccc1 (centres undefined) | 2410 mg/kg
Cc1ccc(C(=O)CC(=O)C(F)(F)F)cc1 | 300 mg/kg
COc1ccc2c3c1O[C@H]1C[C@@H](O)C=C[C@@]31CCN(C)C2 | 75 mg/kg
O=C1C(=NNc2cc([N+](=O)[O-])ccc2O)C(S(=O)(=O)O)=Cc2cc(S(=O)(=O)O)cc(Nc3nc(Cl)nc(Cl)n3)c21 | 9120 mg/kg
CCOCC(=O)Nc1ccc(C(=O)c2ccccc2)cc1C | 2280 mg/kg
CC1(C)CCC(NC(=O)[C@@H](N)CCC(=O)O)CC1 | 1430 mg/kg
CC(C)(N)CO | 2900 mg/kg
COc1cc(NS(=O)(=O)c2ccc(N)cc2)ncn1 | 5620 mg/kg
NCCSSCCN | 896 mg/kg
CCOP(=S)(OCC)SCCSCC(=O)NC | 18 mg/kg
C=COCCSCCCC | 2830 mg/kg
FC(F)(F)CO[C@@H]1CC[C@@](Cn2cncn2)(c2ccc(Cl)cc2Cl)O1 | 450 mg/kg
CCCCN(CCCC)SN(C)C(=O)ON=CC(C)(C)SC | 12.5 mg/kg
O=C1OC(OC(=O)c2cccnc2Nc2cccc(C(F)(F)F)c2)c2ccccc21 (centres undefined) | 12000 mg/kg
CC(C(=O)O)c1ccc2c(c1)Cc1cccnc1O2 (centres undefined) | 59.5 mg/kg

SMILES | LD50
CCOP(=S)(Oc1cccc2cccnc12)c1ccccc1 (centres undefined) | 150 mg/kg
O=C(CCCN1CCC(O)(c2ccc(Cl)c(C(F)(F)F)c2)CC1)c1ccc(F)cc1 | 195 mg/kg
CCOP(=S)(OCC)SCS(=O)CC (centres undefined) | 2 mg/kg
COP(=S)(N=C1SCCS1)OC | 10 mg/kg
CCOCCOCCCO | 7060 mg/kg
COc1ccc2c(c1)OC(C)(C)C(c1ccccc1)=C2c1ccc(OCCO)cc1 | 500 mg/kg
Nc1ccc(F)c([N+](=O)[O-])c1 | 1100 mg/kg
COc1c(C)c2c(c(O)c1C/C=C(\C)CCC(=O)O)C(=O)OC2 | 352 mg/kg
COP(=S)(OC)C(C(=O)O)c1ccccc1 (centres undefined) | 4500 mg/kg
CN1CCC(CN2c3ccccc3Sc3ccccc32)C1 (centres undefined) | 260 mg/kg and 162 mg/kg
C/C(=C/CC[C@@]1(C)C2C[C@@H]3[C@H](C2)C31C)CO | 3800 mg/kg
CCCCCCCCCCCCCCCCOC(=O)C1CC1 | 12200 mg/kg
C=CC(=O)Nc1ccc(O)cc1 | 930 mg/kg
CN(C)CCC1Oc2ccccc2Nc2ccccc21 (centres undefined) | 1400 mg/kg
CCNC(=O)/C=C/c1cccc(Br)c1 | 4440 mg/kg
C=CCn1c(=O)c2[nH]c(C)nc2n(CC(C)C)c1=O | 17 mg/kg
NS(=O)(=O)c1ccc2nc(C(F)(F)F)[nH]c2c1 | 21 mg/kg
CCCCCCCCCCCCCCCC[N+](C)(C)CC(=O)[O-] | 1620 mg/kg
C=CCC(CC)(CC)C(N)=O | 400 mg/kg
CCCC=C(C=NCCCCCCCCCCCCCCCCCCCCC)CC | 5320 mg/kg
CC(O)C(Cl)(Cl)Cl (centres undefined) | 1000 mg/kg
CC(N)C1CCC(c2ccccc2)CC1 (centres undefined) | 690 mg/kg
CC1OCN=C(c2ccccc2)S1 (centres undefined) | 655 mg/kg
COc1cc(C(=O)c2ccc(Cl)cc2)cc(OC)c1OCCN1CCOCC1 | 1290 mg/kg
